Patent US20220289794A1, “SYNTHETIC ANTIMICROBIAL PEPTIDES” (priority 2019, published 2022)
Values after ≈ are worked out from the molar mass of the structure shown. Read-outs that look alike come from different tables or passages of the source. One block for each compound: values may come before it. Residues, ends and D or L forms follow the SMILES beside them.

Columns and labels:
[1] = tested on: Escherichia coli (E. Coli, ATCC 25922); conditions: Escherichia coli (ATCC 25922), antibiotic alone
[2] = tested on: Pseudomonas aeruginosa (PSA, ATCC 27883); experiment: microbe, parasite or virus in culture; conditions: ATCC27883, 24 h
[3] = tested on: Escherichia coli (E. Coli, ATCC 25922); experiment: microbe, parasite or virus in culture; conditions: ATCC25922, 24 h
[4] = tested on: Klebsiella pneumoniae (KPC, ATCC BAA-1705); experiment: microbe, parasite or virus in culture; conditions: ATCCBAA1705, 24 h
[5] = tested on: Methicillin-resistant Staphylococcus aureus MRSA (ATCC BAA-1556); experiment: microbe, parasite or virus in culture; conditions: ATCCBAA1556|MRSA, 24 h
[6] = tested on: Pseudomonas aeruginosa (PSA, ATCC 27883); experiment: Synergy checkerboard assay (FIC index); assay type: cell-based; conditions: Pseudomonas aeruginosa (ATCC 27883), antibiotic alone
MRSA (ATCC BAA-1556) = conditions: MRSA (ATCC BAA-1556), antibiotic alone
[7] = tested on: Klebsiella pneumoniae (KPC, ATCC BAA-1705); conditions: Table 26; Klebsiella pneumoniae (ATCC BAA-1705); antibiotic alone
[8] = tested on: Enterococcus faecium ATCC 27270; conditions: ATCC 27270
[9] = read-out: Pseudomonas aeruginosa (ATCC 27883) MIC, Table 29, [R6W4] (IFX-318), antibiotics alone and PHY-MIX (1:1 w/w)
[10] = read-out: Pseudomonas aeruginosa (ATCC 27883) MIC, Table 30, [R5W4K] (IFX-315), antibiotics alone and PHY-MIX (1:1 w/w)
[11] = read-out: Escherichia coli (ATCC 25922) MIC, Table 30, [R5W4K] (IFX-315), antibiotics alone and PHY-MIX (1:1 w/w)
[12] = read-out: Escherichia coli (ATCC 25922) MIC, Table 31, [R5W4] (IFX-301), antibiotics alone and PHY-MIX (1:1 w/w)
[13] = read-out: Klebsiella pneumoniae (ATCC BAA-1705) MIC, Table 29, [R6W4] (IFX-318), antibiotics alone and PHY-MIX (1:1 w/w)
[14] = read-out: Klebsiella pneumoniae (ATCC BAA-1705) MIC, Table 30, [R5W4K] (IFX-315), antibiotics alone and PHY-MIX (1:1 w/w)
[15] = read-out: Klebsiella pneumoniae (ATCC BAA-1705) MIC, Table 31, [R5W4] (IFX-301), antibiotics alone and PHY-MIX (1:1 w/w)
[16] = read-out: MRSA (ATCC BAA-1556) MIC, Table 31, [R5W4] (IFX-301), antibiotics alone and PHY-MIX (1:1 w/w)

Compound: O=C(O)c1cn(C2CC2)c2cc(N3CCNCC3)c(F)cc2c1=O [Ciprofloxacin, reference compound]
- MIC of antibiotic [1]: 64 µg/mL

Compound: N=C(N)NCCC[C@@H]1NC(=O)[C@H](CCCNC(=N)N)NC(=O)[C@H](CCCNC(=N)N)NC(=O)[C@H](Cc2c[nH]c3ccccc23)NC(=O)[C@H](Cc2c[nH]c3ccccc23)NC(=O)[C@H](Cc2c[nH]c3ccccc23)NC(=O)[C@H](Cc2c[nH]c3ccccc23)NC(=O)[C@H](CCCNC(=N)N)NC1=O [[R4W4] (IFX-326)] (cyclo(RRRRWWWW))
- MIC Klebsiella pneumoniae (ATCC BAA-1705) (KPC): 32 µg/mL (≈ 23.4 µM)
- MIC Escherichia coli (ATCC 25922) (E. coli): 16 µg/mL (≈ 11.7 µM)
- MIC MRSA ATCC BAA-1556 (MRSA): 4 µg/mL (≈ 2.92 µM)
- MIC Pseudomonas aeruginosa (ATCC 27883) (PSA): 64 µg/mL (≈ 46.7 µM)

Compound: N=C(N)NCCC[C@@H]1NC(=O)[C@H](CCCNC(=N)N)NC(=O)[C@H](CCCNC(=N)N)NC(=O)[C@H](Cc2c[nH]c3ccccc23)NC(=O)[C@H](Cc2c[nH]c3ccccc23)NC(=O)[C@H](Cc2c[nH]c3ccccc23)NC(=O)[C@H](Cc2c[nH]c3ccccc23)NC(=O)[C@H](CCCNC(=N)N)NC(=O)[C@H](CCCNC(=N)N)NC1=O [[R5W4] (IFX-301)]
- MIC [8]: 8 µg/mL (≈ 5.24 µM)
- MIC Klebsiella pneumoniae (ATCC BAA-1705) (KPC): 32 µg/mL (≈ 21 µM)
- MIC Escherichia coli (ATCC 25922) (E. coli): 16 µg/mL (≈ 10.5 µM)
- MIC (MRSA): 4 µg/mL (≈ 2.62 µM)
- MIC MRSA ATCC BAA-1556 (MRSA): 4 µg/mL (≈ 2.62 µM)
- MIC Pseudomonas aeruginosa (ATCC 27883) (PSA): 32 µg/mL (≈ 21 µM)

Compound: N=C(N)NCCC[C@@H]1NC(=O)[C@H](CCCNC(=N)N)NC(=O)[C@H](CCCNC(=N)N)NC(=O)[C@H](Cc2c[nH]c3ccccc23)NC(=O)[C@H](Cc2c[nH]c3ccccc23)NC(=O)[C@H](Cc2c[nH]c3ccccc23)NC(=O)[C@H](Cc2c[nH]c3ccccc23)NC(=O)[C@H](CCCNC(=N)N)NC(=O)[C@H](CCCNC(=N)N)NC1=O [[R5W4] IFX-301]
- MIC (KPC): 32 µg/mL (≈ 21 µM)
- MIC (E. coli): 16 µg/mL (≈ 10.5 µM)
- MIC (PSA): 32 µg/mL (≈ 21 µM)

Compound: N=C(N)NCCC[C@@H]1NC(=O)[C@H](CCCNC(=N)N)NC(=O)[C@H](CCCNC(=N)N)NC(=O)[C@H](Cc2c[nH]c3ccccc23)NC(=O)[C@H](Cc2c[nH]c3ccccc23)NC(=O)[C@H](Cc2c[nH]c3ccccc23)NC(=O)[C@H](Cc2c[nH]c3ccccc23)NC(=O)[C@H](Cc2c[nH]c3ccccc23)NC(=O)[C@H](CCCNC(=N)N)NC(=O)[C@H](CCCNC(=N)N)NC1=O [[R5W5] (IFX-314)] (cyclo(RRRRRWWWWW))
- MIC Klebsiella pneumoniae (ATCC BAA-1705) (KPC): 32 µg/mL (≈ 18.7 µM)
- MIC Escherichia coli (ATCC 25922) (E. coli): 16 µg/mL (≈ 9.35 µM)
- MIC MRSA ATCC BAA-1556 (MRSA): 4 µg/mL (≈ 2.34 µM)
- MIC Pseudomonas aeruginosa (ATCC 27883) (PSA): 32 µg/mL (≈ 18.7 µM)

Compound: H-RRRRRWWWWK-OH [Linear R5W4K (SEQ ID NO. 36)]
- MIC Klebsiella pneumoniae (ATCC BAA-1705) (KPC): 64 µg/mL
- MIC Escherichia coli (ATCC 25922) (E. coli): 32 µg/mL
- MIC MRSA ATCC BAA-1556 (MRSA): 8 µg/mL
- MIC Pseudomonas aeruginosa (ATCC 27883) (PSA): 32 µg/mL

More lines, now with the values ahead:

- MIC [2, 9]: > 32 µg/mL
- MIC [2, 10]: > 32 µg/mL
- MIC ([3]; read-out: Escherichia coli (ATCC 25922) MIC, Table 28, IFX-031, antibiotics alone and PHY-MIX (1:1 w/w)): > 32 µg/mL
- MIC ([3]; read-out: Escherichia coli (ATCC 25922) MIC, Table 29, [R6W4] (IFX-318), antibiotics alone and PHY-MIX (1:1 w/w)): > 32 µg/mL
- MIC [3, 11]: > 32 µg/mL
- MIC [3, 12]: > 32 µg/mL
- MIC ([4]; read-out: Klebsiella pneumoniae (ATCC BAA-1705) MIC, Table 28, IFX-031, antibiotics alone and PHY-MIX (1:1 w/w)): > 32 µg/mL
- MIC [4, 13]: > 32 µg/mL
- MIC [4, 14]: > 32 µg/mL
- MIC [4, 15]: > 32 µg/mL
- MIC ([5]; read-out: MRSA (ATCC BAA-1556) MIC, Table 28, IFX-031, antibiotics alone and PHY-MIX (1:1 w/w)): > 32 µg/mL
- MIC [5, 16]: > 32 µg/mL
Compound: Cc1ncc([N+](=O)[O-])n1CCO [Metronidazole]

- MIC of antibiotic ([6]; Table 26): 0.5 µg/mL
- antibiotic MIC ([6]; Table 27): 0.5 µg/mL
- MIC [2, 9]: 0.5 µg/mL (≈ 1.07 µM)
- MIC [2, 10]: 0.5 µg/mL (≈ 1.07 µM)
- MIC ([2]; read-out: Pseudomonas aeruginosa (ATCC 27883) MIC, Table 31, [R5W4] (IFX-301), antibiotics alone and PHY-MIX (1:1 w/w)): 0.5 µg/mL (≈ 1.07 µM)
- MIC [3, 11]: 8 µg/mL (≈ 17.1 µM)
- MIC [3, 12]: 8 µg/mL (≈ 17.1 µM)
- MIC of antibiotic ([1]; Table 25): 8 µg/mL
- MIC [4, 13]: 16 µg/mL (≈ 34.2 µM)
- MIC [4, 14]: 16 µg/mL (≈ 34.2 µM)
- MIC [4, 15]: 16 µg/mL (≈ 34.2 µM)
- MIC of antibiotic (MRSA (ATCC BAA-1556)): 0.5 µg/mL
- MIC of antibiotic (MRSA (ATCC BAA-1556); Table 25): 0.5 µg/mL
- MIC of antibiotics [7]: 16 µg/mL
- MIC ([5]; read-out: MRSA (ATCC BAA-1556) MIC, Table 30, [R5W4K] (IFX-315), antibiotics alone and PHY-MIX (1:1 w/w)): 0.5 µg/mL (≈ 1.07 µM)
- MIC [5, 16]: 0.5 µg/mL (≈ 1.07 µM)
Compound: NC[C@H]1O[C@H](O[C@H]2[C@H](O)[C@@H](O[C@H]3O[C@H](CO)[C@@H](O)[C@H](N)[C@H]3O)[C@H](N)C[C@@H]2N)[C@H](N)C[C@@H]1O [Tobramycin]

- MIC Klebsiella pneumoniae (ATCC BAA-1705) (KPC): 64 µg/mL (≈ 62.3 µM)
- MIC Escherichia coli (ATCC 25922) (E. coli): 32 µg/mL (≈ 31.2 µM)
- MIC MRSA ATCC BAA-1556 (MRSA): 16 µg/mL (≈ 15.6 µM)
- MIC Pseudomonas aeruginosa (ATCC 27883) (PSA): 128 µg/mL (≈ 125 µM)
Compound: N=C(N)NCCC[C@@H]1NC(=O)[C@H](CCCNC(=N)N)NC(=O)[C@H](Cc2c[nH]c3ccccc23)NC(=O)[C@H](Cc2c[nH]c3ccccc23)NC(=O)[C@H](Cc2c[nH]c3ccccc23)NC(=O)[C@H](CCCNC(=N)N)NC1=O [[R3W3] (IFX-302)] (cyclo(WWWRRR))

- MIC Klebsiella pneumoniae (ATCC BAA-1705) (KPC): 64 µg/mL (≈ 38.1 µM)
- MIC Escherichia coli (ATCC 25922) (E. coli): 32 µg/mL (≈ 19 µM)
- MIC (MRSA): 8 µg/mL (≈ 4.76 µM)
- MIC MRSA ATCC BAA-1556 (MRSA): 4 µg/mL (≈ 2.38 µM)
- MIC Pseudomonas aeruginosa (ATCC 27883) (PSA): 16 µg/mL (≈ 9.51 µM)
Compound: N=C(N)NCCC[C@@H]1NC(=O)[C@H](CCCNC(=N)N)NC(=O)[C@H](CCCNC(=N)N)NC(=O)[C@H](CCCNC(=N)N)NC(=O)[C@H](Cc2c[nH]c3ccccc23)NC(=O)[C@H](Cc2c[nH]c3ccccc23)NC(=O)[C@H](Cc2c[nH]c3ccccc23)NC(=O)[C@H](Cc2c[nH]c3ccccc23)NC(=O)[C@H](CCCNC(=N)N)NC(=O)[C@H](CCCNC(=N)N)NC1=O [[R6W4] (IFX-318)] (cyclo(RRRRRRWWWW))

- MIC Klebsiella pneumoniae (ATCC BAA-1705) (KPC): 64 µg/mL (≈ 34.8 µM)
- MIC Escherichia coli (ATCC 25922) (E. coli): 32 µg/mL (≈ 17.4 µM)
- MIC MRSA ATCC BAA-1556 (MRSA): 16 µg/mL (≈ 8.7 µM)
- MIC Pseudomonas aeruginosa (ATCC 27883) (PSA): 32 µg/mL (≈ 17.4 µM)
Compound: N=C(N)NCCC[C@@H]1NC(=O)[C@H](CCCNC(=N)N)NC(=O)[C@H](CCCNC(=N)N)NC(=O)[C@H](CCCNC(=N)N)NC(=O)[C@H](Cc2c[nH]c3ccccc23)NC(=O)[C@H](Cc2c[nH]c3ccccc23)NC(=O)[C@H](Cc2c[nH]c3ccccc23)NC(=O)[C@H](Cc2c[nH]c3ccccc23)NC(=O)[C@H](CCCNC(=N)N)NC(=O)[C@H](CCCNC(=N)N)NC(=O)[C@H](CCCNC(=N)N)NC1=O [[R7W4] (IFX-322)] (cyclo(RRRRRRRWWWW))
